# Laboratory results: patent publication US10656142B2, “Measuring antiplatelet activity” (Melaleuca, Inc., priority 2014, dated 2020)
# System: platelets
# Experiment: Rate of platelet superoxide production during oscillatory shear stress (EPR with CAT1H spin probe) in platelet rich plasma, before and after supplementation
# Format: in vivo, Human
# Conditions: 24 healthy volunteers; measured before and 10 hours after supplementation; Provex CV single or double daily dose, aspirin 325 mg; randomized, single-blind, cross-over study
# Description: Human venous blood was collected via a low-pressure protocol. A manual blood pressure cuff was applied to the arm with a maximum pressure of 40 mmHg. The first sodium citrate vacutainer (75 USP Units, 4 mL) was discarded, and three more were then filled. Blood was centrifuged at 100 g for 19 minutes with no active braking mechanism. Centrifuged blood was then allowed to sit for 20 to 30 minutes. […] An initial 30 μL sample was taken via glass capillary tube for a baseline reading. The SSC was started, and an initial, 5 point kinetic sample was measured. […]
# Amplitude readings were recalculated into μM, and a graph depicting μM/min was prepared. […]
# 24 healthy volunteers were supplemented with the test composition (Provex CV®) at two different dosages (single or double daily dose) or aspirin (325 mg) in a randomized, single-blind, cross-over study. The rate of superoxide production during shear stress was measured before and 10 hours after supplementation.
smiles,measurement,value
CC(=O)Oc1ccccc1C(=O)O [aspirin],inhibition of platelet activation (rate of superoxide production during shear stress),no effect observed
